Assay results: ChEMBL document CHEMBL1140397, “Discovery of 4-aryl-4H-chromenes as a new series of apoptosis inducers using a cell- and caspase-based high-throughput screening assay. 2. Structure-activity relationships of the 7- and 5-, 6-, 8-positions” (Bioorg Med Chem Lett, 2005)

Target: Tubulin beta-4B chain (Homo sapiens, UniProt P68371)
Assay: Inhibitory activity against tubulin using tubulin polymerization assay
Format: functional
Details: not given

Chain of Tubulin beta-4B chain (P68371 whole entry): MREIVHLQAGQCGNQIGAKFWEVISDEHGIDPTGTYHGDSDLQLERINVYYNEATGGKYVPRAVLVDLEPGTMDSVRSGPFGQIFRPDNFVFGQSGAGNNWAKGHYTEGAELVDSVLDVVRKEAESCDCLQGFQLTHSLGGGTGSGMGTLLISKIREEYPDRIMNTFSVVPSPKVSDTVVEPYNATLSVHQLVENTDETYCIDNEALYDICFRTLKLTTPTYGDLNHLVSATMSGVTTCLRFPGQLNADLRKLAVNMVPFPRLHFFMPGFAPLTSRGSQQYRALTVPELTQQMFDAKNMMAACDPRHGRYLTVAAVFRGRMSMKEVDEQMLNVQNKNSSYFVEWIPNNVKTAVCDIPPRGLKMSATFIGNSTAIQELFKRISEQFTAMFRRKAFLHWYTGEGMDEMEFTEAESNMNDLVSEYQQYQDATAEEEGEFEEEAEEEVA

| IC50 [nM] | Compound |
| --- | --- |
| < 500 | COc1cc(C2C(C#N)=C(N)Oc3cc(N)ccc32)cc(Br)c1OC (configuration not stated) |

System: T47D
Assay: Effective concentration against human breast cancer T47D cell line inducing apoptosis activity was measured by cell and caspase-based HTS assay
Format: functional
Details: not given

| Compound | EC50 [nM] |
| --- | --- |
| COc1cc2c(cc1OC)C(c1cc(OC)c3c(c1)OCO3)C(C#N)=C(N)O2 (configuration not stated) | > 10000 |
| COc1cc(C2C(C#N)=C(N)Oc3cc(N(C)C)ccc32)cc2c1OCO2 (configuration not stated) | 730 |
| CCNc1cc2c(cc1C)C(c1cc(OC)c3c(c1)OCO3)C(C#N)=C(N)O2 (configuration not stated) | 1100 |
| COc1cc(C2C(C#N)=C(N)Oc3cc(N4CCOCC4)ccc32)cc2c1OCO2 (configuration not stated) | > 10000 |
| COc1cc(C2C(C#N)=C(N)Oc3cc(Nc4ccccc4)ccc32)cc2c1OCO2 (configuration not stated) | > 10000 |
| COc1cc(C2C(C#N)=C(N)Oc3cc(N)ccc32)cc2c1OCO2 (configuration not stated) | 1200 |
| CCN(CC)c1ccc2c(c1)OC(N)=C(C#N)C2c1cc(OC)c2c(c1)OCO2 (configuration not stated) | 480 |
| COc1cc(OC)c2c(c1)OC(N)=C(C#N)C2c1cc(OC)c2c(c1)OCO2 (configuration not stated) | > 10000 |
| COc1cc(C2C(C#N)=C(N)Oc3cc(O)ccc32)cc2c1OCO2 (configuration not stated) | 5800 |

Continued, values first:

| EC50 [nM] | Compound |
| --- | --- |
| 330 | CCNc1ccc2c(c1)OC(N)=C(C#N)C2c1cc(OC)c2c(c1)OCO2 (configuration not stated) |
| 160 | COc1ccc2c(c1)OC(N)=C(C#N)C2c1cc(OC)c2c(c1)OCO2 (configuration not stated) |

System: T47D
Assay: Effective concentration against human breast cancer T47D cell line apoptosis inducing activity was measured by using cell and caspase-based HTS assay
Format: functional
Details: not given

| Compound | EC50 [nM] |
| --- | --- |
| COc1cc(C2C(C#N)=C(N)Oc3c2ccc(N)c3N)cc(Cl)c1OC (configuration not stated) | 24 |
| COc1cc(C2C(C#N)=C(N)Oc3cc4c(cc32)OCO4)cc2c1OCO2 (configuration not stated) | 210 |
| COc1ccc2c(c1)OC(N)=C(C#N)C2c1cccc([N+](=O)[O-])c1 (configuration not stated) | 89 |
| COc1cc(C2C(C#N)=C(N)Oc3c2ccc(O)c3O)cc(Br)c1OC (configuration not stated) | 1700 |
| COc1ccc2c(c1)OC(N)=C(C#N)C2c1cccc(Cl)c1 (configuration not stated) | 80 |

More lines, now with the values ahead:

| EC50 [nM] | Compound |
| --- | --- |
| 14 | CCNc1ccc2c(c1)OC(N)=C(C#N)C2c1cc(Br)c(OC)c(OC)c1 (configuration not stated) |
| 55 | CCCCNc1ccc2c(c1)OC(N)=C(C#N)C2c1cc(OC)cc(OC)c1 (configuration not stated) |
| 42 | COc1cc(C2C(C#N)=C(N)Oc3c2ccc(C)c3C)cc(Br)c1OC (configuration not stated) |
| 49 | CCCCNc1ccc2c(c1)OC(N)=C(C#N)C2c1cc(OC)c(OC)c(OC)c1 (configuration not stated) |
| 120 | CCCCNc1ccc2c(c1)OC(N)=C(C#N)C2c1cccc(Cl)c1 (configuration not stated) |
| 160 | COc1cc(C2C(C#N)=C(N)Oc3cc(Cl)ccc32)cc(Br)c1OC (configuration not stated) |
| 33 | COc1cc(C2C(C#N)=C(N)Oc3cc(N)ccc32)cc(Br)c1OC (configuration not stated) |

System: NCI-H1299
Assay: Effective concentration against human non-small cell lung cancer H1299 cells inducing apoptosis, activity was measured by cell and caspase-based HTS assay
Format: functional
Details: not given

| Compound | EC50 [nM] |
| --- | --- |
| COc1cc(C2C(C#N)=C(N)Oc3c2ccc(N)c3N)cc(Cl)c1OC (configuration not stated) | 58 |
| COc1ccc2c(c1)OC(N)=C(C#N)C2c1cccc([N+](=O)[O-])c1 (configuration not stated) | 170 |
| COc1cc(C2C(C#N)=C(N)Oc3c2ccc(O)c3O)cc(Br)c1OC (configuration not stated) | 2500 |
| COc1ccc2c(c1)OC(N)=C(C#N)C2c1cccc(Cl)c1 (configuration not stated) | 160 |

Other lines, results leading:

| EC50 [nM] | Compound |
| --- | --- |
| 120 | CCCCNc1ccc2c(c1)OC(N)=C(C#N)C2c1cc(OC)cc(OC)c1 (configuration not stated) |
| 87 | COc1cc(C2C(C#N)=C(N)Oc3c2ccc(C)c3C)cc(Br)c1OC (configuration not stated) |
| 110 | CCCCNc1ccc2c(c1)OC(N)=C(C#N)C2c1cc(OC)c(OC)c(OC)c1 (configuration not stated) |
| 190 | CCCCNc1ccc2c(c1)OC(N)=C(C#N)C2c1cccc(Cl)c1 (configuration not stated) |

System: NCI-H1299
Assay: Effective concentration against human non-small cell lung cancer H1299 cells inducing apoptosis activity was measured by using cell and caspase-based HTS assay
Format: functional
Details: not given

| Compound | EC50 [nM] |
| --- | --- |
| COc1cc2c(cc1OC)C(c1cc(OC)c3c(c1)OCO3)C(C#N)=C(N)O2 (configuration not stated) | > 10000 |
| COc1cc(C2C(C#N)=C(N)Oc3cc(N(C)C)ccc32)cc2c1OCO2 (configuration not stated) | 93 |
| COc1cc(C2C(C#N)=C(N)Oc3cc4c(cc32)OCO4)cc2c1OCO2 (configuration not stated) | 270 |
| CCNc1cc2c(cc1C)C(c1cc(OC)c3c(c1)OCO3)C(C#N)=C(N)O2 (configuration not stated) | 1400 |
| COc1cc(C2C(C#N)=C(N)Oc3cc(N4CCOCC4)ccc32)cc2c1OCO2 (configuration not stated) | > 10000 |
| COc1cc(C2C(C#N)=C(N)Oc3cc(Nc4ccccc4)ccc32)cc2c1OCO2 (configuration not stated) | > 10000 |
| COc1cc(C2C(C#N)=C(N)Oc3cc(N)ccc32)cc2c1OCO2 (configuration not stated) | 1700 |
| CCN(CC)c1ccc2c(c1)OC(N)=C(C#N)C2c1cc(OC)c2c(c1)OCO2 (configuration not stated) | 530 |
| COc1cc(OC)c2c(c1)OC(N)=C(C#N)C2c1cc(OC)c2c(c1)OCO2 (configuration not stated) | > 10000 |
| COc1cc(C2C(C#N)=C(N)Oc3cc(O)ccc32)cc2c1OCO2 (configuration not stated) | 5600 |

The next lines start with the values.

| EC50 [nM] | Compound |
| --- | --- |
| 27 | CCNc1ccc2c(c1)OC(N)=C(C#N)C2c1cc(Br)c(OC)c(OC)c1 (configuration not stated) |
| 400 | CCNc1ccc2c(c1)OC(N)=C(C#N)C2c1cc(OC)c2c(c1)OCO2 (configuration not stated) |
| 290 | COc1cc(C2C(C#N)=C(N)Oc3cc(Cl)ccc32)cc(Br)c1OC (configuration not stated) |
| 230 | COc1ccc2c(c1)OC(N)=C(C#N)C2c1cc(OC)c2c(c1)OCO2 (configuration not stated) |
| 67 | COc1cc(C2C(C#N)=C(N)Oc3cc(N)ccc32)cc(Br)c1OC (configuration not stated) |

System: T47D
Assay: Ratio of inhibition of cell proliferation activity to that of caspase activation inducing apoptosis activity in human breast cancer T47D cell line
Format: functional
Details: not given

| Compound | GI50/EC50 |
| --- | --- |
| COc1cc2c(cc1OC)C(c1cc(OC)c3c(c1)OCO3)C(C#N)=C(N)O2 (configuration not stated) | 1 |
| COc1cc(C2C(C#N)=C(N)Oc3cc(N)ccc32)cc2c1OCO2 (configuration not stated) | 2.1 |
| COc1cc(OC)c2c(c1)OC(N)=C(C#N)C2c1cc(OC)c2c(c1)OCO2 (configuration not stated) | 1 |
| COc1cc(C2C(C#N)=C(N)Oc3cc(O)ccc32)cc2c1OCO2 (configuration not stated) | 1 |

Now from value to molecule:

| GI50/EC50 | Compound |
| --- | --- |
| 1.6 | COc1ccc2c(c1)OC(N)=C(C#N)C2c1cc(OC)c2c(c1)OCO2 (configuration not stated) |
| 2.3 | COc1cc(C2C(C#N)=C(N)Oc3cc(N)ccc32)cc(Br)c1OC (configuration not stated) |

System: T47D
Assay: Growth inhibitory activity against human breast cancer T47D cell line
Format: functional
Details: not given

| Compound | GI50 [nM] |
| --- | --- |
| COc1cc2c(cc1OC)C(c1cc(OC)c3c(c1)OCO3)C(C#N)=C(N)O2 (configuration not stated) | > 10000 |
| COc1cc(C2C(C#N)=C(N)Oc3cc(N)ccc32)cc2c1OCO2 (configuration not stated) | 2400 |
| COc1cc(OC)c2c(c1)OC(N)=C(C#N)C2c1cc(OC)c2c(c1)OCO2 (configuration not stated) | > 10000 |
| COc1cc(C2C(C#N)=C(N)Oc3cc(O)ccc32)cc2c1OCO2 (configuration not stated) | 6080 |

Further lines, results first:

| GI50 [nM] | Compound |
| --- | --- |
| 64 | COc1cc(C2C(C#N)=C(N)Oc3cc(Cl)ccc32)cc(Br)c1OC (configuration not stated) |
| 260 | COc1ccc2c(c1)OC(N)=C(C#N)C2c1cc(OC)c2c(c1)OCO2 (configuration not stated) |
| 77 | COc1cc(C2C(C#N)=C(N)Oc3cc(N)ccc32)cc(Br)c1OC (configuration not stated) |

System: NCI-H1299
Assay: Growth inhibitory activity against human non-small cell lung cancer H1299 cells
Format: functional
Details: Homo sapiens, NCI-H1299

| Compound | GI50 [nM] |
| --- | --- |
| COc1cc2c(cc1OC)C(c1cc(OC)c3c(c1)OCO3)C(C#N)=C(N)O2 (configuration not stated) | > 10000 |
| COc1cc(C2C(C#N)=C(N)Oc3cc(N)ccc32)cc2c1OCO2 (configuration not stated) | 1200 |
| COc1cc(OC)c2c(c1)OC(N)=C(C#N)C2c1cc(OC)c2c(c1)OCO2 (configuration not stated) | > 10000 |
| COc1cc(C2C(C#N)=C(N)Oc3cc(O)ccc32)cc2c1OCO2 (configuration not stated) | 5500 |

Further lines, results first:

| GI50 [nM] | Compound |
| --- | --- |
| 55 | COc1cc(C2C(C#N)=C(N)Oc3cc(Cl)ccc32)cc(Br)c1OC (configuration not stated) |
| 240 | COc1ccc2c(c1)OC(N)=C(C#N)C2c1cc(OC)c2c(c1)OCO2 (configuration not stated) |
| 76 | COc1cc(C2C(C#N)=C(N)Oc3cc(N)ccc32)cc(Br)c1OC (configuration not stated) |
